The values that follow come from patent US20240217959A1, “New (Homo)Piperidinyl Heterocycles as Sigma Ligands” (ACONDICIONAMIENTO TARRASENSE, priority 2021, published 2024).

One experiment deals with T1, human σ2/TMEM97 receptor (Homo sapiens, UniProt Q5BJF2).
T1 construct: expressed in transfected cells; host or cells: HEK-293
The experiment can be described thus: Binding assay to human σ2/TMEM97 receptor ([3H]-DTG). The following applies: transfected HEK-293 membranes, 10 nM [3H]-DTG, 25° C. 120 minutes; read-out: Binding σ-2. The procedure:
Transfected HEK-293 membranes (15 μg) were incubated with 10 nM [^3H]-1,3-Di-o-tolylguanidine (DTG) in assay buffer containing Tris-HCl 50 mM at pH 8.0. NSB (non-specific binding) was measured by adding 10 μM haloperidol. The binding of the test compound was measured at either one concentration (% inhibition at 1 or 10 μM) or five different concentrations to determine affinity values (Ki). Plates were incubated at 25° C. for 120 minutes. After the incubation period, the reaction mix was transferred to MultiScreen HTS, FC plates (Millipore), filtered and washed 3 times with ice-cold 10 mM Tris-HCL (pH 8.0). Filters were dried and counted at approximately 40% efficiency in a MicroBeta scintillation counter (Perkin-Elmer) using EcoScint liquid scintillation cocktail.

In the next experiment the target is T2, human σ1 receptor (Homo sapiens, UniProt Q99720).
T2 construct: expressed in transfected cells; host or cells: HEK-293
T2 sequence (Q99720 whole entry): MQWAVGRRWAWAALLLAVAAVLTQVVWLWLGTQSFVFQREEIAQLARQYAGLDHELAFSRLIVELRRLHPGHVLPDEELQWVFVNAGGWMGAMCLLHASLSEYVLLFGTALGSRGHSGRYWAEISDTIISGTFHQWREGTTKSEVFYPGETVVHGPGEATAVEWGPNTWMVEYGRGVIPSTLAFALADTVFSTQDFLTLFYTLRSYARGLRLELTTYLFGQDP
The experiment can be described thus: Human σ1 receptor radioligand assay ([3H](+)-pentazocine). The following applies: transfected HEK-293 membranes, 5 nM [3H](+)-pentazocine, 37° C. 120 minutes; read-out: Binding σ-1. How it is done:
Transfected HEK-293 membranes (7 μg) were incubated with 5 nM of [^3H](+)-pentazocine in assay buffer containing Tris-HCl 50 mM at pH 8. NBS (non-specific binding) was measured by adding 10 μM haloperidol. The binding of the test compound was measured at either one concentration (% inhibition at 1 or 10 μM) or five different concentrations to determine affinity values (Ki). Plates were incubated at 37° C. for 120 minutes. After the incubation period, the reaction mix was then transferred to MultiScreen HTS, FC plates (Millipore), filtered and plates were washed 3 times with ice-cold 10 mM Tris-HCL (pH 7.4). Filters were dried and counted at approximately 40% efficiency in a MicroBeta scintillation counter (Perkin-Elmer) using EcoScint liquid scintillation cocktail.

T1 sequence (Q5BJF2 whole entry): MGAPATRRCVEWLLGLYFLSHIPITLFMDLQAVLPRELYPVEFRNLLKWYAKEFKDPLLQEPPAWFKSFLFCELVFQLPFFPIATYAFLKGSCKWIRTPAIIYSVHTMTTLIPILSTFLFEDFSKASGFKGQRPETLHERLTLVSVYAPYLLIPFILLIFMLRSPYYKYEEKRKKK

With `Cc1cc(-c2cnc(C3CC3)nc2C2CCN(CC(=O)N3CCOCC3)CC2)on1` [Example 1, 2-(4-(2-Cyclopropyl-5-(3-methylisoxazol-5-yl)pyrimidin-4-yl)piperidin-1-yl)-1-morpholinoethanone], the Ki on human σ2/TMEM97 receptor is below 100 nM; at human σ1 receptor it was 500 to 1000 nM.
For `Cc1cc(-c2cnc(C(C)C)nc2C2CCN(CC(=O)N3CCOCC3)CC2)on1` [Example 2, 2-(4-(2-Isopropyl-5-(3-methylisoxazol-5-yl)pyrimidin-4-yl)piperidin-1-yl)-1-morpholinoethanone] the same measures were below 100 nM and above 1000 nM.
Take `CCc1ncc(-c2cc(C)no2)c(C2CCN(CC(=O)N3CCCOCC3)CC2)n1` [Example 3, 2-(4-(2-Ethyl-5-(3-methylisoxazol-5-yl)pyrimidin-4-yl)piperidin-1-yl)-1-(1,4-oxazepan-4-yl)ethanone]: the Ki at human σ2/TMEM97 receptor was below 100 nM; at human σ1 receptor, above 1000 nM.
For the compound `CCc1ncc(-c2cc(C)no2)c(C2CCN(CC(=O)N3CCC4(CCOC4)CC3)CC2)n1` [Example 4, 2-(4-(2-Ethyl-5-(3-methylisoxazol-5-yl)pyrimidin-4-yl)piperidin-1-yl)-1-(2-oxa-8-azaspiro[4.5]decan-8-yl)ethanone], the results for the Ki at human σ2/TMEM97 receptor and on human σ1 receptor were below 100 nM and above 1000 nM, respectively.
On the same counts, the results for `CCc1ncc(-c2cc(C)no2)c(C2CCN(CC(=O)N3CCOCC3)CC2)n1` [Example 5, 2-(4-(2-Ethyl-5-(3-methylisoxazol-5-yl)pyrimidin-4-yl)piperidin-1-yl)-1-morpholinoethanone] are below 100 nM and above 1000 nM.
With `CCc1ncc(-c2cc(C)no2)c(C2CCN(CC(=O)N3CCC(F)(F)CC3)CC2)n1` [Example 6, 1-(4,4-Difluoropiperidin-1-yl)-2-(4-(2-ethyl-5-(3-methylisoxazol-5-yl)pyrimidin-4-yl)piperidin-1-yl)ethanone], the Ki is below 100 nM on human σ2/TMEM97 receptor and 500 to 1000 nM on human σ1 receptor.
For `CCc1ncc(-c2cc(C)no2)c(C2CCN(CC(=O)N3CCCN(C)CC3)CC2)n1` [Example 7, 2-(4-(2-Ethyl-5-(3-methylisoxazol-5-yl)pyrimidin-4-yl)piperidin-1-yl)-1-(4-methyl-1,4-diazepan-1-yl)ethanone] the same measures were below 100 nM and above 1000 nM.
As for `Cc1cc(-c2cnc(C(F)(F)F)nc2C2CCN(CC(=O)N3CCOCC3)CC2)on1` [Example 8, 2-(4-(5-(3-Methylisoxazol-5-yl)-2-(trifluoromethyl)pyrimidin-4-yl)piperidin-1-yl)-1-morpholinoethanone], the Ki on human σ2/TMEM97 receptor is below 100 nM; at human σ1 receptor it was above 1000 nM.
For `CCc1ncc(-c2cc(C)no2)c(C2CCN(CCC(=O)N3CCOCC3)CC2)n1` [Example 9, 3-(4-(2-Ethyl-5-(3-methylisoxazol-5-yl)pyrimidin-4-yl)piperidin-1-yl)-1-morpholinopropan-1-one] the same measures were below 100 nM and above 1000 nM.
On the same counts, the results for `CCc1ncc(-c2cc(C)no2)c(C2CCN(CCN3CCOCC3)CC2)n1` [Example 10, 4-(2-(4-(2-Ethyl-5-(3-methylisoxazol-5-yl)pyrimidin-4-yl)piperidin-1-yl)ethyl)morpholine] are below 100 nM and 100 to 500 nM.
In the case of `CCc1ncc(-c2cc(C)no2)c(C2CCN(CC(=O)N3CCCCC3)CC2)n1` [Example 11, 2-(4-(2-Ethyl-5-(3-methylisoxazol-5-yl)pyrimidin-4-yl)piperidin-1-yl)-1-(piperidin-1-yl)ethan-1-one], the values for the Ki on human σ2/TMEM97 receptor and on human σ1 receptor were below 100 nM and 500 to 1000 nM, respectively.
For `CCCc1ncc(-c2cc(C)no2)c(C2CCN(CC(=O)N3CCOCC3)CC2)n1` [Example 12, 2-(4-(5-(3-Methylisoxazol-5-yl)-2-propylpyrimidin-4-yl)piperidin-1-yl)-1-morpholinoethan-1-one] the same measures were below 100 nM and above 1000 nM.
For `CCc1ncc(-c2ccccn2)c(C2CCN(CC(=O)N3CCOCC3)CC2)n1` [Example 13, 2-(4-(2-Ethyl-5-(pyridin-2-yl)pyrimidin-4-yl)piperidin-1-yl)-1-morpholinoethan-1-one] the same measures were 100 to 500 nM and above 1000 nM.
For `CCc1ncc(-c2cccc(C)n2)c(C2CCN(CC(=O)N3CCOCC3)CC2)n1` [Example 14, 2-(4-(2-Ethyl-5-(6-methylpyridin-2-yl)pyrimidin-4-yl)piperidin-1-yl)-1-morpholinoethan-1-one] the same measures were 100 to 500 nM and above 1000 nM.
Regarding `CCc1ncc(-c2ccncc2)c(C2CCN(CC(=O)N3CCOCC3)CC2)n1` [Example 15, 2-(4-(2-Ethyl-5-(pyridin-4-yl)pyrimidin-4-yl)piperidin-1-yl)-1-morpholinoethan-1-one], the Ki on human σ2/TMEM97 receptor and on human σ1 receptor was 500 to 1000 nM throughout.
Regarding `CCc1ncc(-c2nccn2C)c(C2CCN(CC(=O)N3CCOCC3)CC2)n1` [Example 16, 2-(4-(2-Ethyl-5-(1-methyl-1H-imidazol-2-yl)pyrimidin-4-yl)piperidin-1-yl)-1-morpholinoethan-1-one], the Ki on human σ2/TMEM97 receptor was 500 to 1000 nM; at human σ1 receptor, above 1000 nM.
For `CCc1ncc(-c2cc(C)no2)c([C@@H]2CCCN(CC(=O)N3CCOCC3)CC2)n1` [Example 17, (R)-2-(4-(2-Ethyl-5-(3-methylisoxazol-5-yl)pyrimidin-4-yl)azepan-1-yl)-1-morpholinoethan-1-one] the same measures were 100 to 500 nM and 100 to 500 nM.
On to `CCc1ncc(-c2cc(C)no2)c([C@H]2CCCN(CC(=O)N3CCOCC3)CC2)n1` [Example 18, (S)-2-(4-(2-Ethyl-5-(3-methylisoxazol-5-yl)pyrimidin-4-yl)azepan-1-yl)-1-morpholinoethan-1-one], for which the Ki on human σ2/TMEM97 receptor is below 100 nM; on human σ1 receptor, 500 to 1000 nM.
For `Cc1ccc(-c2ccnc(C)n2)c(C2CCN(CC(=O)N3CCOCC3)CC2)n1` [Example 19, 2-(4-(6-Methyl-3-(2-methylpyrimidin-4-yl)pyridin-2-yl)piperidin-1-yl)-1-morpholinoethan-1-one] the same measures were 500 to 1000 nM and 500 to 1000 nM.
